Experimental data: patent publication US20160242414A1, “SAFENED HERBICIDAL COMPOSITIONS CONTAINING HALAUXIFEN OR 4-AMINO-3-CHLORO-5-FLUORO-6-(4-CHLORO-2-FLUORO-3-METHOXYPHENYL) PYRIDINE-2-CARBOXYLIC ACID AND METHODS OF USE THEREOF IN TURF” (Dow AgroSciences LLC, priority 2015, published 2016)

Assays:
[1] = system: perennial ryegrass (LOLPE); test: Postemergence turf injury field trial, perennial ryegrass, with Activator 90 adjuvant
Experimental: (§1) For the ryegrass and tall fescue experiments, research trials were conducted in Indiana at the William H Daniel Turfgrass Research center in West Lafayette, Ind. on well established 10 year old stands of perennial ryegrass and tall fescue that were maintained as a home lawn with regular fertilization, irrigation and a 7.5 cm mowing height. To begin the trial, the research areas were sub-divided into 3 replications of 2.3 m^2 plots in a completely randomized block design for each grass species and spray mixtures were prepared just prior to the treatment by mixing the formulations with water.
Herbicide treatments were applied to ryegrass and tall fescue turfgrass plots in spray applications that included the spray adjuvant Activator 90 at 0.25% (v/v). The plots were treated with a hand held CO2 backpack sprayer equipped with a 3 liter bottle that delivered 804 liters/ha of spray to each plot using a flat fan nozzle. No irrigation, rainfall or mowing occurred until 24 hours after the application. The temperature at the time of the application was 24° C. and the wind speed averaged 4.8 km/hr. There was no cloud cover during the application and the soil was moist. Visual evaluations were made of turf injury for each plot on a 0%-100% scale where 0%=no injury and 100%=death at 0, 7, 14, 28 and 42 days after the application.
The following equation was used to calculate the expected activity of mixtures containing two active ingredients, A and B:
Expected=A+B−(A×B/100) • A=observed efficacy of active ingredient A at the same concentration as used in the mixture; • B=observed efficacy of active ingredient B at the same concentration as used in the mixture.

tall fescue (FESAR) = test: Postemergence turf injury field trial, tall fescue, with Activator 90 adjuvant; conditions: 28 days after application
Experimental: as §1
Herbicide treatments were applied to ryegrass and tall fescue turfgrass plots in spray applications that included the spray adjuvant Activator 90 at 0.25% (v/v). The plots were treated with a hand held CO2 backpack sprayer equipped with a 3 liter bottle that delivered 804 liters/ha of spray to each plot using a flat fan nozzle. No irrigation, rainfall or mowing occurred until 24 hours after the application. The temperature at the time of the application was 24° C. and the wind speed averaged 4.8 km/hr. There was no cloud cover during the application and the soil was moist. Visual evaluations were made of turf injury for each plot on a 0%-100% scale where 0%=no injury and 100%=death at 0, 7, 14, 28 and 42 days after the application. […]

With CNC.O=C(O)COc1ccc(Cl)cc1Cl [2,4-D DMA, 2,4-D dimethyl ammonium] the “Observed Injury” value ([1]; 28 days after application, 2,4-D DMA 840 g ae/ha) was 3%, the “Observed Injury” value ([1]; 28 days after application, 2,4-D DMA 1120 g ae/ha) was 7% and the “Observed Injury” value ([1]; 28 days after application, 2,4-D DMA 1680 g ae/ha) was 0%. The “Observed Injury” value ([1]; 28 days after application, 2,4-D DMA 2520 g ae/ha) was 10%, the “Observed Injury” value ([1]; 42 days after application, 2,4-D DMA 840 g ae/ha) was 0% and the “Observed Injury” value ([1]; 42 days after application, 2,4-D DMA 1120 g ae/ha) was 0%. For the same compound, the “Observed Injury” value ([1]; 42 days after application, 2,4-D DMA 1680 g ae/ha) was 0% and the “Observed Injury” value ([1]; 42 days after application, 2,4-D DMA 2520 g ae/ha) was 0%.
In the case of CNC.COc1c(Cl)ccc(Cl)c1C(=O)O [Dicamba DMA, dicamba dimethyl ammonium], the “Observed Injury” value ([1]; 28 days after application, dicamba DMA 280 g ae/ha) is reported as 7% and the “Observed Injury” value (tall fescue (FESAR); dicamba DMA 280 g ae/ha) is reported as 0%.
In the case of COC(=O)c1nc(-c2ccc(Cl)c(OC)c2F)cc(N)c1Cl [Halauxifen-Methyl, halauxifen-methyl], the “Observed Injury” value ([1]; 28 days after application, halauxifen-methyl 15 g ae/ha, 0%=no injury, 100%=death) is reported as 23%, the “Observed Injury” value ([1]; 28 days after application, halauxifen-methyl 30 g ae/ha) is reported as 33% and the “Observed Injury” value ([1]; 28 days after application, halauxifen-methyl 45 g ae/ha) is reported as 40%. The “Observed Injury” value ([1]; 42 days after application, halauxifen-methyl 15 g ae/ha) was 8%, the “Observed Injury” value ([1]; 42 days after application, halauxifen-methyl 30 g ae/ha) was 12% and the “Observed Injury” value ([1]; 42 days after application, halauxifen-methyl 45 g ae/ha) was 35%. The “Observed Injury” value (tall fescue (FESAR); halauxifen-methyl 30 g ae/ha) was 32%.
